The text below walks through data of patent US11578125B2, “Anti-thyroid hormone (T4) recombinant antibody or antigen binding fragment” (Teknologian tutkimuskeskus VTT Oy, priority 2018, dated 2023).

Each structure is given as a SMILES string.

Broadly, the IC50 is the point on the concentration scale where inhibition reaches its midpoint. As a reminder, the Kd is a measure of binding affinity in units of concentration. Read a low Kd as higher affinity.

The test system of one assay is anti-T4 Fab. The assay can be described thus: competitive ELISA, T4-BSA coated wells, 0.25 nM anti-T4 Fab pre-incubated with analyte. The format is binding, mouse. As to conditions: for IC50: by ELISA assay, read-out: relative IC50. The protocol:
Microtiter plate wells (Nunc, 436023) were coated with 100 μl of 4 μg/ml T4-BSA (Fitzgerald, 80-IT50) in PBS (15 mM phosphate, 150 mM NaCl, pH 7.3) for one hour at +37° C. with 600 rpm shaking. Wells were then washed three times with 300 μl PBS supplemented with 0.05% (v/v) Tween20 (Sigma-Aldrich, 93773-250G). Wells were blocked with 200 μl of Superblock® (Thermo Fisher Scientific, 37516) for 30 minutes in room temperature with 600 rpm shaking and washed as above. 100 μl of pre-incubated mixtures, containing 0.25 nM anti-T4 Fab and varying concentrations of L-thyroxine (T4) (Sigma-Aldrich, T2376) in PBSP (GE Healthcare, 28-9950-84) supplemented with 1% DMSO (v/v) (Sigma-Aldrich, D5879-100ML), were transferred to wells and incubated for 30 minutes with 600 rpm shaking in room temperature. Each sample had 12 replicates. Wells were washed as above and 100 μl of Goat anti-mouse Kappa-HRP (SoutherBiotech, 1050-05) diluted 1:1000 in Superblock was transferred to wells and incubation was carried out for 30 minutes at 600 rpm shaking in room temperature. Wells were washed as above and 100 μl of TMB Microwell Peroxidase Substrate System (2-C) (SeraCare, 50-76-00) was transferred to wells and enzymatic reaction was carried out for 30 minutes with 600 rpm shaking in room temperature. Reactions were stopped by transferring 100 μl of 1 M H3PO4 to the wells and measured at A450 using Varioskan (Thermo Fisher Scientific). Data was analysed with OriginPro 2017-software.
Assay was performed as in the previous paragraph (under title L-Thyroxine) except instead of T4 (Thyroxine) TIBPA (Tetraiodobisphenol A) was used.
Assay was performed as in the paragraph under title L-Thyroxine except instead of T4 (Thyroxine) TBBPA (Tetrabromobisphenol A) was used.
Assay was performed as in the paragraph under title L-Thyroxine except instead of T4 (Thyroxine) TCBPA (Tetrachlorobisphenol A) was used.
Assay was performed as in the paragraph under title L-Thyroxine except instead of T4 (Thyroxine) BPA (Bisphenol A) was used.
Background: ELISA stands for enzyme-linked immunosorbent assay.

For a further assay, the target named is anti-T4 Fab fragment. Description: SPR (BIAcore T200) inhibition assay, immobilized T4-AP, affinity and specificity determination. The format is binding, mouse. As to conditions: 2 nM anti-T4 Fab preincubated with analyte, T4-AP on CM5 chip, 2% DMSO-PBSP, triplicates. The protocol: T4-alkaline phosphatase was immobilized to the sensor surface and Kd values were determined by inhibition assay method.
T4-AP and AP (P5931, Sigma-Aldrich, St. Louis, Mo., USA), were diluted to 100 μg/mL concentration in 10 mM sodium acetate pH 4.0 (BR100351, GE Healthcare, Piscataway, N.J., USA). T4-AP and AP were immobilized to preconditioned CM5 chip using EDC/NHS—chemistry following manufacturer's instructions. Concentration of anti-T4 Fab fragment was calculated using theoretical extinction coefficient (ExPASy ProtParam tool, web.expasy.org/protparam) of the anti-T4 Fab fragment and by measuring the A280 with NanoDrop 2000c instrument (Thermo Disher Scientific, Waltham, Mass., USA). […] Flowrate was set to 30 μl/min in all cycle steps.
Preincubated mixtures were injected over the sensor chip surface for seven minutes and dissociated for 30 seconds. […] Data collection point was set to be 10 seconds after the start of dissociation phase. All sample series were run as triplicates, where a single sample series consisted from growing small molecule concentration in the preincubation mixture. Data was reference and blank subtracted. In addition, small differences in DMSO between the samples were compensated using DMSO solvent correction series, as recommended by instrument manufacturer GE Healthcare). Concentrations of free anti-T4 Fab fragments remaining in the preincubated mixtures were calculated by comparing the obtained responses against standard curve of anti-T4 Fab fragment. Affinity constants were calculated using BIAcore T200 Evaluation Software (GE Healthcare, Piscataway, N.J., USA) applying four-parameter logistic function. (See FIGS. 4A and B and Table 1.)
In general terms: In SPR one partner is held on a chip, and binding of the other changes the refractive index at the surface.

Regarding `CC(C)(c1ccc(O)cc1)c1ccc(O)cc1` [BPA, Bisphenol A], the “competition in competitive ELISA assay” value in the assay on anti-T4 Fab (high concentration (5 μM)) is “No competition was observed”. The “KD, anti-T4 Fab” value at anti-T4 Fab fragment is given as “no binding”.

Turning to `N[C@@H](Cc1ccc(Oc2ccc(O)cc2)cc1)C(=O)O` [Compound T0], at anti-T4 Fab fragment, the “KD, anti-T4 Fab” value is “no binding”.

As for `CC(C)(c1cc(I)c(O)c(I)c1)c1cc(I)c(O)c(I)c1` [TIBPA, Tetraiodobisphenol A], the 50% inhibitory concentration (IC50) in the assay with anti-T4 Fab turned out to be 54 nM. The molecule further registered a dissociation constant (Kd) on anti-T4 Fab fragment of 37.3 nM.

In the case of `CC(C)(c1cc(Cl)c(O)c(Cl)c1)c1cc(Cl)c(O)c(Cl)c1` [TCBPA, Tetrachlorobisphenol A], in the assay on anti-T4 Fab, the half-maximal inhibitory concentration (IC50) is 544 nM. This molecule returned a dissociation constant Kd on anti-T4 Fab fragment of 558 nM.

As for `CC(C)(c1cc(Br)c(O)c(Br)c1)c1cc(Br)c(O)c(Br)c1` [TBBPA, Tetrabromobisphenol A], the 50% inhibitory concentration (IC50) with anti-T4 Fab was 74 nM. Also, the Kd on anti-T4 Fab fragment stood at 69.2 nM.

Take `N[C@@H](Cc1cc(I)c(Oc2cc(I)c(O)c(I)c2)c(I)c1)C(=O)O` [Compound T4, 3,5,3′,5′-tetraiodothyronine]: the IC50 in the assay on anti-T4 Fab was 0.54 nM. This molecule also registered a Kd at anti-T4 Fab fragment of 0.53 nM.
